Results on two substances are retold here after patent US20090123488A1, “Compositions and methods for the treatment and prophylaxis of Alzheimer's disease” (priority 2006, published 2009).

For assay [1], the system named is amyloid-β. Particulars: mice, alum adjuvant, five boosts (Agadjanyan et al 2005); cited from earlier work.
The test system of assay [2] is Aβ40. As to conditions: immunized mice (Agadjanyan et al 2005); cited from earlier work.
Assay [3] has as its system synthetic Aβ40. Description: Effect of booster doses: mouse serums titered on synthetic Aβ40. Format: in vivo. As to conditions: three mice. The method, then:
After immunizations with the immunogens of Example 1, serums were assayed to determine anti-Aβ peptide titers by conventional ELISA methods. […] After thorough washing with 0.1% triton X 100 buffer, blocking with 1% bovine serum albumin (BSA) and rewashing, serum dilutions were applied and incubated at 22° C. for 1 hour. After incubation, the plates were thoroughly washed with triton-X 100 buffer again and 1/10,000 goat anti-mouse IgG-horseradish peroxidase (HRP) conjugate (or the appropriate reagent for rat or rabbit) was applied. The plates were then incubated for 1 hour at 22° C. then washed thoroughly and developed with ABTS for 45 minutes at room temperature on a shaker table. Absorbance was measured at 405 nm. Control wells containing 1/60000 normal mouse serum were measured; and the reciprocal of the […] dilution of test serums with an OD greater than the mean+8 SDs of controls was taken as the titer.
In an experiment to determine the effect of booster dosages, three mice were immunized with experimental immunogen, Pam2C-SSQYIKANSKFIGITELDAEFRHDSGYEVHHQ-amide (SEQ ID NO: 13) in a protocol of a 1 mg intraperitoneal (IP) priming dose at Day 0, followed by a 1 mg IP booster at Week 3, and a 1 mg IP second booster at Week 6. Mice were bled at weeks 5 and 8. The serums are titered on synthetic Aβ40. […]

Sequence of Aβ40 (P05067 672-711): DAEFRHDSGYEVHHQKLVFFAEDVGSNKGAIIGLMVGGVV

On to “Aβ33-MAP: Aβ33 synthesized as a multiple antigenic peptide (Agadjanyan et al 2005)”, for which the maximal titer in assay [1] is on record as 64,000. Besides, in assay [2], the “T cell response to Aβ40” value is “demonstrable T cell response”.

Turning to “Pam2C-SSQYIKANSKFIGITELDAEFRHDSGYEVHHQ-amide [Pam2-QYIK-AB1-15]”, the “GMT at 5 weeks” value in assay [3] (1 mg IP Day 0, boosters Week 3 and Week 6, bled week 5) was 3 million. In addition, the “GMT at 8 weeks” value in assay [3] (1 mg IP Day 0, boosters Week 3 and Week 6, bled week 8) is listed as 8 million.
